# Entries after “also recorded” stand apart in the source; their conditions may differ.
# B1: GDF11: GDF11 protein from Bio-techne/R&D, catalog 1958-GD, truncated active protein of 109 amino acids (protein, UniProt O95390 299-407, looked up)
# Growth/differentiation factor …: NLGLDCDEHSSESRCCRYPLTVDFEAFGWDWIIAPKRYKANYCSGQCEYMFMQKYPHTHLVQQANPRGSAGPCCTPTKMSPINMLYFNDKQQIIYGKIPGMVVDRCGCS
# modifications: Growth/differentiation factor 11
# Columns and labels:
# [1] = tested on: chondrocyte hypertrophy and MMP13 expression; conditions: ex vivo and in vivo; cited from earlier work
# AC cartilage = conditions: post-traumatic OA model, Jaswal et al.; cited from earlier work
# [2] = tested on: bone marrow stromal cell-derived chondrocytes; conditions: cited from earlier work
# TGFbeta signaling = assay: GDF11 injection into the knee joint of mice with established post-traumatic OA: TGFbeta signaling; format: in vivo, mouse; conditions: data of FIG. 13
# Description: FIG. 13. Growth differentiation factor 11 (GDF11, see, e.g., NCBI Reference Sequence: NP_005802.1) competes with BMP9/10 for binding to BMP type II receptors ACVRIIA or ACVRIIB, thereby preventing the association of BMP type I receptor ALK1 with ACVRIIA/B and decreasing BMP signaling. […] We tested this hypothesis by locally injecting GDF11 (50 ng/dose) into the knee joint space at mice with established post-traumatic OA. (A) Experimental Outline (B) Safranin-O/Fast Green (SOFG) Staining of sagittal sections of the knee joint, femur (top) and tibia (bottom) for proteoglycan (cartilage; red) and bone (green) at week 8 after DMM or Sham surgery. Mice were treated with either GDF11, or Phosphate Buffered Saline (PBS) after received surgery (n=5/group). 4-Week DMM mice were sacrificed 4 weeks after surgery and received no treatment (n=6). AC damage indicated by dotted line. (C-D) Osteoarthritis Research Society International (OARSI) scoring of AC damage in the (C) medial tibial plateau and (D) medial femoral condyle in representative sections of each treatment at week 4 or 8 after surgery. All data are shown as mean bar+/−standard deviation *p<0.05. Data analysis performed was one-way ANOVA. Scale 250 uM. […]
# [3] = tested on: articular cartilage of DMM mice; assay: DMM model of post-traumatic OA: Safranin-O/Fast Green staining and OARSI scoring of articular cartilage damage; format: in vivo, mouse; conditions: mice with established osteoarthritis, 50 ng/dose injected into knee joint space
# Description: FIG. 13. Growth differentiation factor 11 (GDF11, see, e.g., NCBI Reference Sequence: NP_005802.1) competes with BMP9/10 for binding to BMP type II receptors ACVRIIA or ACVRIIB, thereby preventing the association of BMP type I receptor ALK1 with ACVRIIA/B and decreasing BMP signaling. […] We tested this hypothesis by locally injecting GDF11 (50 ng/dose) into the knee joint space at mice with established post-traumatic OA. (A) Experimental Outline (B) Safranin-O/Fast Green (SOFG) Staining of sagittal sections of the knee joint, femur (top) and tibia (bottom) for proteoglycan (cartilage; red) and bone (green) at week 8 after DMM or Sham surgery. Mice were treated with either GDF11, or Phosphate Buffered Saline (PBS) after received surgery (n=5/group). 4-Week DMM mice were sacrificed 4 weeks after surgery and received no treatment (n=6). AC damage indicated by dotted line. (C-D) Osteoarthritis Research Society International (OARSI) scoring of AC damage in the (C) medial tibial plateau and (D) medial femoral condyle in representative sections of each treatment at week 4 or 8 after surgery. All data are shown as mean bar+/−standard deviation *p<0.05. Data analysis performed was one-way ANOVA. Scale 250 uM.
# Mice (C57BL/6J) were purchased from The Jackson Laboratory. All mice were housed on a 12-hour light/dark cycle with unrestricted access to standard mouse food and water. The DMM model of injury induced OA was performed on mice at 12 weeks of age by opening the joint capsule and transecting the medial meniscotibial ligament in the right knee, destabilizing the medial meniscus(48). A sham operation was performed on the left knee of each mouse by observing the medial meniscotibial ligament but not transecting it. Mice were administered carprofen 5 mg/kg (Zoetis; 1041283) subcutaneously 30 minutes prior to surgery, immediately post-surgery, and 24 hours post-surgery to minimize pain.
# Treatments were initiated either 1 day after DMM surgery once a week for 8 weeks, or 1 month after DMM surgery twice a week for 4 weeks. Mice were sacrificed at 20 weeks of age (2 months after surgery). To understand the level of articular cartilage damage 1 month after DMM surgery, a cohort of mice was sacrificed at 16 weeks old (FIG. 4).
# Knee joint samples were harvested and fixed in 4% Paraformaldehyde for 3 days, and subsequently decalcified in formic acid (Statlab; 1414-32) for 3 days and embedded in paraffin. Sagittal sections 7 micrometers in thickness were taken and stained using Safranin-O (Sigma-Aldrich; S8884-25G), fast green (Sigma-Aldrich; F7258-25G), and hematoxylin (Fisherbrand; 245-656) using a standard histology protocol. Images were taken with the Olympus BX60 brightfield microscope using a 10× objective lens. Representative sections throughout the medial and lateral portion of side were chosen for histological analysis, resulting in 5 sections being imaged for both portions of the joint.
# The 10 total sections per joint chosen for histology received randomized sample numbers and were given to three independent researchers who scored the level of cartilage damage based on OARSI guidelines (84). OARSI scores were analyzed with Prism 9 Software (GraphPad) using two-way ANOVA and Tukey's multiple comparisons test post-hoc. Scoring was performed by at least three experienced investigators blinded to treatment/genotype. Scores were averaged for the medial tibial plateau, medial femoral condyle, lateral tibial plateau, and lateral femoral condyle for each sample.
Molecule,chondrocyte hypertrophy and MMP13 expression [1],protection of AC cartilage (AC cartilage),chondrocyte hypertrophy / chondrogenic hypertrophic markers in vitro [2],TGFbeta signaling (TGFbeta signaling),degeneration of articular cartilage [3]
c1ccc2c(-c3cnn4cc(-c5ccc(N6CCNCC6)cc5)cnc34)ccnc2c1 [LDN-193189],prevented,protective,not able to prevent; also recorded: no reduction,,
B1,,,,increase TGFbeta signaling,attenuate the degeneration of articular cartilage
